Assay results published in publication PMC12067350, “Discovery of Thieno[3,2‑b]pyridine-5-carboxamide and 2,3-Difluorobenzamide Negative Allosteric Modulators of Metabotropic Glutamate Receptor Subtype 5” (ACS Medicinal Chemistry Letters, 2025).
Entries after “also recorded” stand apart in the source; their conditions may differ. Where two headings read alike, the source gives them in different places.

How the values were obtained:
human mGlu5 [1] = target: T1, human mGlu5 (Homo sapiens, UniProt P41594); assay: Calcium mobilization assay in human mGlu5-HEK293A cells (NAM, EC80 glutamate); type: cell-based; details: for %Glumin: efficacy of the NAM to reduce an EC80 response of glutamate
T1 construct: expressed in transfected cells
T1 sequence (P41594 21-1212): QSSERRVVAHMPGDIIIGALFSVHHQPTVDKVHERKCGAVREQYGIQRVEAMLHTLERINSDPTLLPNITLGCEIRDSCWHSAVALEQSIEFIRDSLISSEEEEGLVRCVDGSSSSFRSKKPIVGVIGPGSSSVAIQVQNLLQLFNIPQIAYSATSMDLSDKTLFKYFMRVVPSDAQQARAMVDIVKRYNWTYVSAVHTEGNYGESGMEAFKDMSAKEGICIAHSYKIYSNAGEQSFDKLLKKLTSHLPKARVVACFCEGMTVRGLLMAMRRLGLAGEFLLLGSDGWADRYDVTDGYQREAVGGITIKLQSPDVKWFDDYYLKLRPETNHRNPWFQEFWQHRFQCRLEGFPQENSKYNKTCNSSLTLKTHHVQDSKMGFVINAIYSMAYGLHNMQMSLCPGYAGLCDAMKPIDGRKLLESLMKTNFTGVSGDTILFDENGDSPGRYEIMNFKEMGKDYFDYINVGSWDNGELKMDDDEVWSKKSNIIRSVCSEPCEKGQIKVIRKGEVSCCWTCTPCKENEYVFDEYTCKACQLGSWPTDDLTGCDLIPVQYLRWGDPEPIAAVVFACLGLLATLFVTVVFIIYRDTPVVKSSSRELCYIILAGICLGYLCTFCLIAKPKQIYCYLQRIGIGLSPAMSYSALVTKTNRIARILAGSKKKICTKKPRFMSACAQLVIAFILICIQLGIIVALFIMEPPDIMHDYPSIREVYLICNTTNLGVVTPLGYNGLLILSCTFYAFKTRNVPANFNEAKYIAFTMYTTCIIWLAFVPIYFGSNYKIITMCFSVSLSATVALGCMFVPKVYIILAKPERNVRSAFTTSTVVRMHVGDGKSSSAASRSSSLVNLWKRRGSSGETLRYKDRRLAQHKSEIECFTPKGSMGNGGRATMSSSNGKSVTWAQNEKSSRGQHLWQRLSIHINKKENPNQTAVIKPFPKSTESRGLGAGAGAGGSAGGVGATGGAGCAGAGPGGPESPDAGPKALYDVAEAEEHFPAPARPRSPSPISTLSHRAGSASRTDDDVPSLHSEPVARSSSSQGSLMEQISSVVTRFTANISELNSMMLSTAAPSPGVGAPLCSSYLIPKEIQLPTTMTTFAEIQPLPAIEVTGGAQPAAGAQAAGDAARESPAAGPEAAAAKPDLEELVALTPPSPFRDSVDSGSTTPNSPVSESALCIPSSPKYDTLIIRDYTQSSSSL

[2] = Binding in plasma from human (equilibrium dialysis); type: in vitro ADME; details: fraction unbound
Method: Binding in plasma from rat and human.
Determination of compounds’ fraction unbound (f u) in plasma from rat and human was conducted in vitro via equilibrium dialysis using HTDialysis membrane plates. Dialysis membranes (four paired strips per HTD assay) were hydrated as described by the manufacturer and inserted into the HTD plate, which was assembled and prepared for sample addition by the dispensing of blank buffer (DPBS, 100 µL/well) into the ‘top half’ of each membrane-split well. Each compound was diluted into plasma from each species (5 µM final concentration), which was aliquoted in triplicate to the ‘bottom half’ of the prepared HTD plate wells. The HTD plate was sealed and incubated for 6 hours at 37 °C. Following incubation, each well (both top and bottom halves) were transferred (20 µL) to the corresponding wells of a 96-shallow-well (V-bottom) plate. The daughter plates were then matrix-matched (buffer side wells received equal volume of plasma, and plasma side wells received equal volume of buffer), and extraction solution (120 µL; acetonitrile containing 50 nM carbamazepine as IS) was added to all wells of both daughter plates to precipitate protein and extract test article. The plates were then sealed and centrifuged (3500 rcf) for 10 minutes at ambient temperature. Supernatant (60 µL) from each well of the daughter plates was then transferred to the corresponding wells of new daughter plates (96-shallow-well, V bottom) containing water (Milli-Q, 60 µL/well), and the plates were sealed in preparation for LC-MS/MS analysis (see below). fu was calculated as (analyte to IS MS peak area ratio from Trans-buffer side) / (analyte to IS MS peak area ratio from Cis-plasma side). Mean values for each species were calculated from 3 replicates. […]
Mean values for each species were calculated from 3 replicates.

[3] = Intrinsic clearance in rat liver microsomes; type: in vitro ADME; details: predicted hepatic clearance from in vitro rat microsomal data
Method: Intrinsic Clearance in Rat and Human Liver Microsomes
The in vitro intrinsic clearance (CL int) was investigated in commercially obtained hepatic microsomes from rat and human donors using the substrate depletion (i.e., loss-of-parent vs. time, or t 1/2 method) approach with analyte detection via liquid chromatography-tandem mass spectrometry (LC-MS/MS). For each species, mean %parent remaining values at each time point were calculated from replicates raw data (analyte:IS peak area ratios) and used to determine in vitro t 1/2 and CLint.
Experiments were carried out using a robot-assisted (TECAN model Evo 200). Compound was incubated (1 µM final concentration) in buffer (100 mM potassium phosphate pH 7.4 with 3 mM MgCl2) containing hepatic microsomes (0.5 mg/mL final concentration) from multiple species, discretely, at 37 °C under constant orbital shaking. After 5 minutes (pre-incubation), reactions were initiated by addition of nicotinamide adenine dinucleotide phosphate (NADPH, 1 mM final concentration). At selected time intervals (0, 3, 7, 15, 25, and 45 minutes) post-addition of NADPH, aliquots (50 µL) were taken and placed into a 96-shallow-well plate containing ice cold acetonitrile (150 µL) with carbamazepine (IS, 50 nM). The plates were then centrifuged (3000 rcf at 4 °C) for 10 minutes. The supernatants were transferred to a new 96-shallow-well daughter plate and diluted (1:1 v/v) with water (Milli-Q filtered). The plates were then sealed in preparation for LC-MS/MS analysis (see below).
Raw LC-MS/MS peak area data generated from the assay samples were used to construct natural log-transformed %parent remaining vs. time plots (using t = 0 minute post-NADPH addition sample data as starting point set to 100%). In vitro compound half-life (t 1/2) values were obtained using the following […]
k is the slope from linear regression analysis of the natural log-transformed data (using means from Where all replicates at each time point). Resulting t 1/2 values were then used to calculate hepatic CLint values according to the following equation and with the use of species-specific scale-up factors for liver weight (grams) per total body weight (kg):
CL = 0.693 x 1 mL incubation x 45 mg microsomes x a gram liver
int in vitro t1/2 0.5 mg microsomes 1 gram liver kg body wt aScale-up factors used are 45 (rat) and 20 (human).1
Predicted hepatic clearance (CLhep) was calculated using the following equation: […]
Qh represents hepatic blood flow (mL/min/kg): 21 for human, 70 for rat, and 90 for mouse.

[4] = parameters: method as in PMID 31589885; details: led to termination of trials; attributed to off-target MAO-B; cited from earlier work
[5] = literature, cited from earlier work
[6] = rat, cited from earlier work
[7] = parameters: method as in PMID 28530802; details: NHP, 28-day study, AO metabolite accumulated after 14 days, nonmechanism based; cited from earlier work
human mGlu5 [8] = target: T1, human mGlu5; details: previously published picolinamide series; read-out: hmGlu5 IC50; cited from earlier work
[9] = parameters: method as in PMID 30446311; details: cited from earlier work
[10] = cited from earlier work
M1 = test system: M1; parameters: method as in PMID 37101980; details: cited from earlier work
[11] = human mGlu5-HEK293A cells, EC80 fixed concentration of glutamate, n = 2 in triplicate
[12] = human mGlu5-HEK293A cells, EC80 fixed concentration of glutamate, n = 2 in triplicate, read-out: IC50

Row | Structure (SMILES) | %Glumin (human mGlu5 [1]; human mGlu5-HEK293A cells) [%] | pIC50 (human mGlu5 [1]; [11]) | IC50 (human mGlu5 [1]; [12]) [µM] | further results
1 | Cc1csc(NC(=O)c2cc(OC3CC(C)(C)OC3(C)C)c3sccc3n2)n1 (stereo not drawn) [22b] | – | – | – | IC50 (nM) (human mGlu5 [1]; [11]): inactive
2 | Cc1csc(NC(=O)c2cc(OC3CCOCC3)c3sccc3n2)n1 [22d] | 25 | < 5 | > 10 | –
3 | Cc1csc(NC(=O)c2cc(OC3COC3)c3sccc3n2)n1 [22e] | 2 | 6.76 | 0.185 | –
4 | CO[C@@H](C)COc1cc(C(=O)Nc2nc(C)cs2)nc2ccsc12 [22g] | 12 | 6.17 | 0.682 | –
5 | Cc1csc(NC(=O)c2cc(OC3CC(C#N)C3)c3sccc3n2)n1 (stereo not drawn) [22i] | – | – | – | human f u,plasma [2]: 0.005; rat CLhep [3]: 48.2 mL/min/kg
6 | Cc1csc(NC(=O)c2cc(OC3CSC3)c3sccc3n2)n1 [22j] | 2 | 6.98 | 0.107 | human f u,plasma [2]: 0.001; rat CLhep [3]: 68.4 mL/min/kg
7 | Cc1csc(NC(=O)c2cc(O[C@@H]3CCOC3)cnn2)n1 [27aA] | – | – | – | IC50 (nM) (human mGlu5 [1]; [11]): inactive
8 | O=C(Nc1ccc(F)cn1)c1cncc(O[C@@H]2CCOC2)c1 [27bB] | – | – | – | IC50 (nM) (human mGlu5 [1]; [11]): inactive
9 | O=C(Nc1ccc(F)cn1)c1cc(O[C@@H]2CCOC2)cc(F)c1F [27cB] | 3 | 5.88 | 1.57 | IC50 (human mGlu5 [1]; in μM, read-out: hmGlu5 IC50): 1.6 µM
10 | O=C(Nc1ccc(F)cn1)c1cc(O[C@@H]2CCOC2)ncn1 [27eB] | – | – | – | IC50 (nM) (human mGlu5 [1]; [11]): inactive
11 | Cc1csc(NC(=O)c2cc(O[C@@H]3CCOC3)c3ccncc3n2)n1 [27gA] | 2 | 5.69 | 2.05 | IC50 (human mGlu5 [1]; in μM, read-out: hmGlu5 IC50): 2.1 µM
12 | O=C(Nc1ccc(F)cn1)c1cc(O[C@@H]2CCOC2)c2ccncc2n1 [27gB] | 3 | 5.76 | 1.78 | –
13 | N#Cc1cc(F)cc(-c2nc(-c3ccc(F)cn3)no2)c1 [AZD9272] | – | – | – | adverse effect in clinical trials [4]: psychosis-like symptoms
14 | O=C(c1ccc(OC(F)F)c(C#Cc2ccccn2)c1)N1Cc2cccnc2C1 [GRN-529] | – | – | – | glutathione conjugation to the alkyne [5]: extensive glutathione conjugation; toxicology finding ([5]; nonhuman primates, 8-week regulatory toxicology study): biliary epithelial hyperplasia; also recorded: hepatotoxicity observed
15 | Cc1csc(NC(=O)c2cc(F)cc(Oc3cncnc3)c2)n1 [VU0409106] | – | – | – | %F ([6]; in vivo): < 5%
16 | Cc1cc(Oc2cncnc2)cc(C(=O)Nc2ccc(F)cn2)n1 [compound 10, N-(5-Fluoropyridin-2-yl)-6-methyl-4-(pyrimidin-5-yloxy)picolinamide] | – | – | – | toxicology finding [7]: pronounced anemia
17 | Cc1cc(O[C@@H]2CCOC2)cc(C(=O)Nc2ccc(F)cn2)n1 [compound 11] | – | – | – | oral bioavailability (%F) [6]: 5.5%; IC50 (human mGlu5 [8]): 22 nM; predicted hepatic clearance in rat (CLhep) [9]: 51 mL/min/kg; rat brain:plasma K p,uu [10]: 0.79
18 | O=C(NCc1ccc(F)cn1)c1cc(Oc2cccnc2)c2sccc2n1 [compound 13] | – | – | – | M1 PAM (M1): > 30 µM
19 | CN1CC(=O)N=C1NC(=O)Nc1cccc(Cl)c1 [fenobam] | – | – | – | adverse effect in clinical trials [4]: psychosis-like symptoms
